# US20190350887A1, “INCREASING BIOAVAILABILITY OF IRON WITH AVENANTHRAMIDE 2c” (priority 2018, published 2019)
# Test system: Caco-2 cells
# Experiment: in vitro Caco-2 cell bioassay of iron bioavailability (ferritin formation)
# Format: cell-based
# Conditions: for effect on iron bioavailability: same testing conditions as avenanthramide 2c (FIG. 1)
# Protocol: FIG. 1 is a graph illustrating the results of in vitro tests that were performed in order to predict the effect that avenanthramide 2c, avenanthramide 2p, and avenanthramide 2f would have on iron bioabsorption in humans. Specifically, an in vitro Caco-2 cell bioassay was used that accurately predicts how a compound will influence iron bioabsorption in humans. In these cells, the intracellular iron storage protein known as ferritin forms in direct proportion to cell iron uptake.
# […] The ferric chloride solution is administered to the cells by itself (as a control) and along with the compound(s) being tested to assess their effect iron bioavailability, as measured by the amount of ferritin formed in the cells—a sensitive and accurate measurement of cell iron uptake. The test protocol measures the total weight of cell protein and the total weight of ferritin produced by the cells in order to generate a weight ratio of ferritin to cell protein (in units of ng ferritin formed per mg cell protein). The ratios from the test samples are compared against a control sample wherein only ferric chloride is administered to the cells. Test samples with higher ferritin values (ng ferritin/mg cell protein) compared to the control indicate improvement or enhancement of iron bioavailability, whereas test samples with ferritin values approximately equal to (or within the margin of error) or less than the control indicates no effect on iron bioavailability or inhibition of iron bioavailability, respectively.
SMILES,"iron bioavailability (ferritin formation) compared with control (5 μM avenanthramide with 10 μM ferric chloride, control = ferric chloride only)",ferritin formation relative to control (20 μM avenanthramide with 10 μM ferric chloride),"ferritin formation, increase over the 5 μM sample (20 μM avenanthramide with 10 μM ferric chloride, relative to 5 μM sample)",ferritin value compared with control and lower concentrations (30 μM avenanthramide with 10 μM ferric chloride),effect on iron bioavailability
"O=C(/C=C/c1ccc(O)c(O)c1)Nc1ccc(O)cc1C(=O)O [avenanthramide 2c, 2-[[(E)-3-(3,4-dihydroxyphenyl)prop-2-enoyl]amino]-5-hydroxybenzoic acid]",more than double the control value,more than 3.5 times the control value,more than 1.5 factor,"still above the values measured at 10 μM and 5 μM, and well above control",
"O=C(/C=C/c1ccc(O)cc1)Nc1ccc(O)cc1C(=O)O [avenanthramide 2p, 5-hydroxy-2-[[(E)-3-(4-hydroxyphenyl)prop-2-enoyl]amino]benzoic acid, reference compound]",,,,,negligible or zero effect
"COc1cc(/C=C/C(=O)Nc2ccc(O)cc2C(=O)O)ccc1O [avenanthramide 2f, 5-hydroxy-2-[[(E)-3-(4-hydroxy-3-methoxyphenyl)prop-2-enoyl]amino]benzoic acid, reference compound]",,,,,negligible or zero effect
